Patent publication US11382884B2, “Method for reducing lung infection” (priority 2017, dated 2022)

Columns and labels:
[1] = tested on: P. aeruginosa WACC91 planktonic cells; test: Checkerboard, tobramycin with other chelators; assay type: cell-based, Pseudomonas aeruginosa; details: for effect on the MIC of tobramycin: concentration-dependent, FIGS. 13 and 14
Description: (§1) Growth method 2: Overnight cultures of the relevant strain of P. aeruginosa were grown in M63 medium supplemented with glucose (0.5% w/v), casamino acids (0.2% w/v) and MgSO4 (1 mM) at 35° C. with shaking. 96-well microplates containing M63 with serial dilutions of antibiotics and adjuvants as indicated were inoculated to OD600 nm 0.01 in a final volume of 200 μl. Plates were incubated at 35° C. overnight without shaking.
Cells were grown according to method 2 and challenged with different concentrations of tobramycin.

[2] = tested on: P. aeruginosa planktonic cells and biofilms; test: Microplate test of antibiotics of different classes with buffered CaEDTA; assay type: cell-based, Pseudomonas aeruginosa; details: growth method 2; FIGS. 7-12
Description: as §1
(§2) Planktonic growth was monitored by OD reading or plate counting. Biofilms were quantified by staining with 40 μl of crystal violet stain (1% w/v in water) for 10 min at room temperature, washing twice with 250 μl of water, dissolving the stain in 250 μl of 50% ethanol and reading optical density at 595 nm.
Cells were grown according to method 2 and challenged with buffered CaEDTA and a series of clinically relevant antibiotics of different classes with different modes of action.

P. aeruginosa ATCC27853 = test: Time-kill assay, ceftazidime with or without buffered CaEDTA; assay type: cell-based, Pseudomonas aeruginosa; details: ceftazidime 128 ug/ml, buffered CaEDTA 20 mM
Description: This is likely a result of increased antibiotic killing. Challenge microorganisms were grown on solid agar and suspended in 0.9% Sodium Chloride (SCl) to create a challenge suspension. A 0.1 mL aliquot of the challenge suspension containing approximately 1×10^8 colony forming units was then inoculated into 10 mL Cation-Adjusted Mueller Hinton Broth (CaMHB) with the appropriate antibiotic or antibiotic with chelator, as indicated, and mixed thoroughly. The challenge suspension/antibiotic mixtures were then incubated at 35 degrees C. for the exposure time. At each timepoint, 0.1 mL aliquots were removed and placed into 9.9 mL of Butterfield's Phosphate Buffer with product neutralizers, mixed thoroughly by vortexing, and plated using the appropriate agar. Recovered colonies were enumerated using a hand-tally counter.

[3] = tested on: Burkholderia cepacia planktonic cells; test: Checkerboard, antibiotics with buffered CaEDTA; assay type: cell-based; details: FIGS. 15 and 16
Description: (§3) Checkerboard assays of other species were carried out using growth method 1, apart from the following variations. Burkholderia cepacia was incubated at 30° C., and other bacteria were incubated at 37° C. Streptococcus pyogenes and Streptococcus pneumoniae were grown in Todd Hewitt Broth, and Staphylococcus aureus was grown in Veal Infusion Broth.

[4] = tested on: Staphylococcus aureus MRSA; test: Antibiotics with buffered CaEDTA against MRSA; assay type: cell-based; details: FIG. 19 (vancomycin), FIG. 21 (ciprofloxacin)
Description: as §3

S. aureus MSSA = test: Ciprofloxacin with buffered CaEDTA against MSSA; assay type: cell-based, Staphylococcus aureus; details: FIG. 20
Description: as §3

[5] = tested on: P. aeruginosa clinical strain; test: MIC of tobramycin for the clinical strain; assay type: cell-based; details: Pseudomonas aeruginosa; P. aeruginosa clinical strain used in the CF mucus model
[6] = tested on: P. aeruginosa clinical strain biofilms; test: Biofilms in hanging drops of CF mucus treated with nebulised tobramycin and/or aerosolised EDTA particles; assay type: cell-based, Pseudomonas aeruginosa; details: 5 min treatment, nebulised tobramycin 20 mg/ml and/or aerosolised EDTA particles 10 mg/ml, 16 hours incubation; FIG. 24A
Description: Biofilms were grown in a realistic in vitro model using suspended drops of cystic fibrosis mucus harvested from epithelial cell lines (Haley, C. L., Colmer-Hamood, J. A., and Hamood, A. N. (2012). Characterization of biofilm-like structures formed by Pseudomonas aeruginosa in a synthetic mucus medium. BMC Microbiol 12, 181.).
Drops of mucus (5 μl) were suspended from an inverted IBIDI cover slip and inoculated with 10^3 cfu, then incubated in a humidified environment at 35° C. for 72 hours to allow biofilm development. […] Controls were treated with a 50/50 solution of nebulised 0.9% saline/water. Following treatment, the drops were incubated for 16 hours, then stained with BacLight LIVE/DEAD (1 μl), and fixed in paraformaldehyde vapour for 30 min. Biofilms were visualised using confocal microscopy.

[7] = tested on: P. aeruginosa WACC91 biofilms; test: Checkerboard, biofilm growth (crystal violet staining), tobramycin with CaEDTA or buffered CaEDTA; assay type: cell-based, Pseudomonas aeruginosa; details: tobramycin alone, 4 ug/ml; FIG. 5
Description: Growth method 1: Cells were grown in M9 medium supplemented with arginine and MgSO4, in polystyrene 96-well plates (Nunc) by seeding each well with […] of an overnight culture of P. aeruginosa strain WACC 91 and incubating at 37° C. for 24 hours.
Anaerobic cultures were incubated in a closed chamber with anaerobic sachets to remove oxygen.
as §2
Cells of P. aeruginosa WACC91 were grown according to method 1 and tested in a checkerboard assay against tobramycin and CaEDTA in varying concentrations.

[8] = tested on: Klebsiella pneumoniae planktonic cells and biofilms; test: Checkerboard, colistin with buffered CaEDTA; assay type: cell-based
Description: as §3

P. aeruginosa = details: ten CF children, nebulised sodium EDTA and oral tetracycline for three months; cited from earlier work

Q: With `O=C(O)CN(CCN(CC(=O)O)CC(=O)O)CCN(CC(=O)O)CC(=O)O` [DTPA, diethylenetriaminepentaacetic acid] as the molecule, how does the interaction with tobramycin ([1]; FIG. 14) read?
A: synergy

Q: What about the “effect on the MIC of tobramycin” value [1] of the same molecule?
A: reduce the MIC

Q: For `O=C(O)CN(CCOCCOCCN(CC(=O)O)CC(=O)O)CC(=O)O` [EGTA, ethylene glycol tetraacetic acid], which “effect on the MIC of tobramycin” value [1] is on record?
A: reduce the MIC

Q: For `C[C@H]1[C@H](NC(=O)/C(=N\OC(C)(C)C(=O)O)c2csc(N)n2)C(=O)N1S(=O)(=O)O` [aztreonam], which “sensitivity of P. aeruginosa to the antibiotic in the presence of buffered CaEDTA” value (from here on “sensitivity of P. aeruginosa”) [2] is on record?
A: increases the sensitivity

Q: Which “sensitivity of P. aeruginosa” value [2] does the source give for `CC1(C)S[C@@H]2[C@H](NC(=O)C(C(=O)O)c3ccccc3)C(=O)N2[C@H]1C(=O)O` (some centres unmarked) [carbenicillin] here?
A: increases the sensitivity

Q: For `CC(C)(O/N=C(\C(=O)N[C@@H]1C(=O)N2C(C(=O)[O-])=C(C[n+]3ccccc3)CS[C@H]12)c1csc(N)n1)C(=O)O` [ceftazidime], which “rate of killing in the presence of buffered CaEDTA” value (P. aeruginosa ATCC27853) is on record?
A: much more rapid

Q: Which “MIC of B. cepacia in the presence of buffered CaEDTA” value [3] does the source give for `O=C(O)c1cn(C2CC2)c2cc(N3CCNCC3)c(F)cc2c1=O` [ciprofloxacin] here?
A: lowered

Q: And the “MIC in the presence of buffered CaEDTA” value [4]?
A: reduced MIC values

Q: What about the “MIC in the presence of buffered CaEDTA” value (S. aureus MSSA) of the same molecule?
A: reduced MIC values

Q: For `CC[C@H]1OC(=O)[C@H](C)[C@@H](O[C@H]2C[C@@](C)(OC)[C@@H](O)[C@H](C)O2)[C@H](C)[C@@H](O[C@@H]2O[C@H](C)C[C@H](N(C)C)[C@H]2O)[C@](C)(O)C[C@@H](C)C(=O)[C@H](C)[C@@H](O)[C@]1(C)O` [erythromycin], which “sensitivity of P. aeruginosa” value [2] is on record?
A: increases the sensitivity

Q: Which “sensitivity of P. aeruginosa” value [2] does the source give for `COc1cccc(OC)c1C(=O)N[C@@H]1C(=O)N2[C@@H]1SC(C)(C)[C@@H]2C(=O)O` [methicillin] here?
A: increases the sensitivity

Q: What does the source list for `NC[C@H]1O[C@H](O[C@H]2[C@H](O)[C@@H](O[C@H]3O[C@H](CO)[C@@H](O)[C@H](N)[C@H]3O)[C@H](N)C[C@@H]2N)[C@H](N)C[C@@H]1O` [tobramycin]?
A: MIC of B. cepacia in the presence of buffered CaEDTA [3]: lowered; MIC [5]: > 256 µg/mL; biofilm viability (BacLight LIVE/DEAD, confocal microscopy) [6]: little effect on viability; biofilm formation at sub-MIC concentration [7]: increase biofilm formation

Q: For `CN[C@H](CC(C)C)C(=O)N[C@H]1C(=O)N[C@@H](CC(N)=O)C(=O)N[C@H]2C(=O)N[C@H]3C(=O)N[C@H](C(=O)N[C@H](C(=O)O)c4cc(O)cc(O)c4-c4cc3ccc4O)[C@H](O)c3ccc(c(Cl)c3)Oc3cc2cc(c3O[C@@H]2O[C@H](CO)[C@@H](O)[C@H](O)[C@H]2O[C@H]2C[C@](C)(N)[C@H](O)[C@H](C)O2)Oc2ccc(cc2Cl)[C@H]1O` [vancomycin], which “MIC in the presence of buffered CaEDTA” value [4] is on record?
A: reduced MIC values

Q: With colistin as the molecule, how does the “sensitivity of P. aeruginosa” value [2] read?
A: increases the sensitivity

Q: What about the “sensitivity of planktonic cells in the presence of buffered CaEDTA” value ([8]; FIG. 17A) of the same molecule?
A: sensitized

Q: What about the “sensitivity of biofilms in the presence of buffered CaEDTA” value ([8]; FIG. 17B) of the same molecule?
A: sensitized

Q: For sodium EDTA, which “lung function or infection status” value (P. aeruginosa) is on record?
A: no change in lung function or infection status
